{
  "source": "patent US9566290B2",
  "about": "“Boron-containing small molecules” (Anacor Pharmaceuticals, Inc., priority 2005, dated 2017)",
  "key": {"[1]": {"test": "Water solubility (table of physicochemical properties)"}, "[2]": {"system": "19 test strains of fungi", "test": "Antifungal MIC, microbroth dilution (NCCLS)", "assay_type": "cell-based", "settings": "MIC = over 90% reduction of growth, read-out: MIC values against all fungi tested", "from_the_text": "(§1) (C10) is a novel compound in development for use as a topical antifungal treatment. The purpose of this study was to determine the minimum inhibitory concentration (MIC) for (C10) against 19 test strains of fungi including: Aspergillus fumigatus (A. fumigatus), Candida Albicans (C. albicans, both fluconazole sensitive and resistant strains), Candida glabrata (C. glabrata), Candida krusei (C. krusei), Cryptococcus neoformans (C. neoformans), Candida parapsilosis (C. parapsilosis), Candida tropicalis (C. tropicalis), Epidermophyton floccosum (E. floccosum), Fusarium solani (F. solani), Malassezia furfur (M. furfur), Malassezia pachydermatis (M. pachydermatis), Malassezia sympodialis (M. sympodialis), Microsporum audouinii (M. audouinii), Microsporum canis (M. canis), Microsporum gypseum (M. gypseum), Trichophyton mentagrophytes (T. mentagrophytes), Trichophyton rubrum (T. rubrum), Trichophyton tonsurans (T. tonsurans). Fungal growth was evaluated after exposure to different concentrations of (C10). In addition, the MIC for (C10) against T. rubrum in the presence of 5% keratin powder and the minimum fungicidal concentration (MFC) for (C10) against T. rubrum and T. mentagrophytes were also determined. Ciclopirox and/or terbinafine and/or fluconazole and/or itraconazole were used as comparators and tested in a similar manner. These studies were conducted at NAEJA Pharmaceutical, Inc. […]"}, "[3]": {"system": "T. rubrum", "test": "MIC in the presence of 5% keratin powder", "assay_type": "cell-based, Trichophyton rubrum", "description": "Many antifungal agents strongly bind to keratin which not only reduces their antifungal potency but also may restrict their penetration into the nail. The affinities of the compounds for keratin powder was determined by a method described in Tatsumi, Antimicrobial Agents and Chemotherapy, 46(12):3797-3801 (2002).\nas §1, with “(C10).” for “(C10). In addition, the MIC for (C10) against T. rubrum in the presence of 5% keratin powder and the minimum fungicidal concentration (MFC) for (C10) against T. rubrum and T. mentagrophytes were also determined. Ciclopirox and/or terbinafine and/or fluconazole and/or itraconazole were used as comparators and tested in a similar manner. These studies were conducted at NAEJA Pharmaceutical, Inc.”"}, "[4]": {"system": "S. cerevisiae C10 resistant mutants (CDC60 editing domain mutations)", "test": "MIC (NCCLS M27), spontaneous and EMS induced C10 resistant mutants", "assay_type": "cell-based, Saccharomyces cerevisiae", "settings": "for MIC: Saccharomyces cerevisiae", "description": "The haploid Saccharomyces cerevisiae strain ATCC 201388 was used in the selection of C10 resistant mutants. Spontaneous and EMS-induced resistant mutants were isolated from YPD agar plates containing 4×, 8×, 16×MIC of C10. All minimal inhibitory concentrations (MIC) were determined using NCCLS protocol M27 with the exception of using YPD or synthetic defined media. All yeast and molecular genetic manipulations were essentially performed as described by Guthrie C., et al., Methods in Enzymology, 350: Part B, (2002).\n(§2) Resistant mutants appeared after 2 d incubation at 30° C. Frequency of resistance was determined by dividing the number of resistant mutants by the total number of cells plated as determined by plating dilutions of the overnight culture on YPD plates.\nA 2.5 mL of the overnight culture, which was grown in YPD media, was centrifuged at 700×g for 5 minutes. The cell pellet was resuspended in 10 mL 50 mM potassium phosphate buffer, pH 7.0. The cell suspension was centrifuged again and the cell pellet was resuspended in phosphate buffer to obtain a cell density of 5×10^7 cells/mL as determined by counting the cells using a Petroff Hausser Counting Chamber (Horsham, Pa. USA). The cell suspension was shaken with 300 μL of EMS (Alfa Aesar, Ward Hill, Mass., USA) for 30 min. at 30° C. The mutagenesis was stopped by adding 10% (w/v) sodium thiosulfate (Sigma-Aldrich, St. Louis, Mo., USA), and the cells were pelleted by centrifugation at 700×g for 5 min. and resuspended in 1 mL sterile H2O. This was repeated once more before the cells were plated on YPD agar plates containing 1.6 μg/mL of C10.\n(§3) The minimal inhibitory concentration (MIC) was essentially performed following the NCCLS guidelines outlined in the M27 protocol with the exception of using YPD or synthetic defined media (SDM)."}, "[5]": {"system": "S. cerevisiae diploid (mutant strain/ATCC200901)", "test": "MIC of diploids from yeast mating experiment", "assay_type": "cell-based, Saccharomyces cerevisiae", "description": "as §3\nThe haploid mutants derived from S. cerevisiae ATCC201388 were mixed with S. cerevisiae ATCC 200901, and were incubated on YPD agar plates at 30° C. for 4 h. The cell mixture was streaked out on synthetic defined media agar (BD, NJ USA) without the amino acids lysine and methionine, which are selective for diploids."}, "[6]": {"system": "S. cerevisiae strain ATCC201388", "test": "Frequency of spontaneous resistance", "assay_type": "cell-based, Saccharomyces cerevisiae", "settings": "spontaneous mutants, at 4×MIC", "description": "as §2"}},
  "data": [
    {"molecule": "OB1OCc2cc(F)ccc21", "note": "[C10, 5-fluorobenzo[c][1,2]oxaborol-1(3H)-ol]", "values": [
      {"measurement": "solubility", "setting": "[1]", "value": "> 100", "unit": "µg/mL"},
      {"measurement": "MIC", "setting": "[2]", "value": "0.25 to 2", "unit": "µg/mL"},
      {"measurement": "effect of addition of 5% keratin powder to the media on MIC", "setting": "[3]", "value": "did not effect the MIC"},
      {"measurement": "increase in resistance (MIC) of resistant mutants over wildtype", "setting": "[4]; 11 C10 resistant mutants", "value": "8-64 fold"},
      {"measurement": "increased resistance over wildtype in the minimal inhibitory concentration test", "setting": "[4]; 23 C10 resistant mutants (Example 41)", "value": "8-64 fold"},
      {"measurement": "MIC", "setting": "[4]; Table 1, mutant (A), CDC60 N415D", "value": 4, "unit": "µg/mL"},
      {"measurement": "MIC", "setting": "[4]; Table 1, mutant (B), CDC60 R316I", "value": 16, "unit": "µg/mL"},
      {"measurement": "MIC", "setting": "[4]; Table 1, mutant (C), CDC60 C326F", "value": 16, "unit": "µg/mL"},
      {"measurement": "MIC", "setting": "[4]; Table 1, mutant (D), CDC60 G405V", "value": 32, "unit": "µg/mL"},
      {"measurement": "MIC", "setting": "[4]; Table 1, mutant (E), CDC60 C326R", "value": 16, "unit": "µg/mL"},
      {"measurement": "MIC", "setting": "[4]; Table 1, mutant (F), CDC60 D487G", "value": 32, "unit": "µg/mL"},
      {"measurement": "MIC", "setting": "[4]; Table 1, mutant (G), CDC60 L315V", "value": 32, "unit": "µg/mL"},
      {"measurement": "MIC", "setting": "[4]; Table 1, mutant (H), CDC60 T314M", "value": 32, "unit": "µg/mL"},
      {"measurement": "MIC", "setting": "[4]; Table 1, mutant (I), CDC60 S416L", "value": 32, "unit": "µg/mL"},
      {"measurement": "MIC", "setting": "[4]; Table 1, mutant (J), CDC60 D487N", "value": 32, "unit": "µg/mL"},
      {"measurement": "MIC", "setting": "[4]; Table 1, mutant (K), CDC60 T319I", "value": 32, "unit": "µg/mL"},
      {"measurement": "MIC", "setting": "[4]; Table 2, C10 resistant mutant (C)", "value": 16, "unit": "µg/mL"},
      {"measurement": "MIC", "setting": "[4]; Table 2, C10 resistant mutant (G)", "value": 16, "unit": "µg/mL"},
      {"measurement": "MIC", "setting": "[4]; Table 2, C10 resistant mutant (H)", "value": 16, "unit": "µg/mL"},
      {"measurement": "MIC", "setting": "[5]; Saccharomyces cerevisiae, ATCC200901", "value": 32, "unit": "µg/mL"},
      {"measurement": "MIC", "setting": "[5]; Saccharomyces cerevisiae, ATCC 200901 / ATCC 201388", "value": 0.5, "unit": "µg/mL"},
      {"measurement": "MIC", "setting": "[5]; diploid (G)/ATCC200901", "value": 32, "unit": "µg/mL"},
      {"measurement": "MIC", "setting": "[5]; diploid (H)/ATCC200901", "value": 32, "unit": "µg/mL"},
      {"measurement": "MIC of diploids from C10 mutants versus diploid from parental strain", "setting": "[5]; three mutants mated with ATCC 200901", "value": 64, "unit": "fold"},
      {"measurement": "frequency of resistance", "setting": "[6]", "value": "1.2×10^−7"}
    ]}
  ]
}
